Here are results for 22 compounds from US12065436B2, “Cardiac sarcomere inhibitors” (Cytokinetics, Inc., priority 2018, dated 2024).

Each structure is given as a SMILES string.

The target of the test is bovine cardiac myofibrils (full-length cardiac myosin ATPase in the native sarcomere) (Bos taurus (Bovine), UniProt Q9BE39). Put plainly: Skinned bovine cardiac myofibril ATPase assay (PK/LDH-coupled). The format is biochemical. As to conditions: Ca2+ activating to 75% of maximal rate; for CDMF75 IC15: concentration giving 15% inhibition; for IC50: read-out: CDMF75 IC50. Put shortly: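 Triton-skinned bovine left-ventricle myofibrils (1 mg/mL) in PM 12 buffer (12 mM PIPES, 2 mM MgCl2, pH 6.8) with 50 μM ATP, 0.6 mM EGTA and CaCl2 set for 50% or 75% activation. Steady-state ATPase inhibition followed by PK/LDH-coupled NADH oxidation at 340 nm.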
Sequence of bovine cardiac myofibrils (full-length cardiac myosin ATPase in the native sarcomere) (Q9BE39 whole entry): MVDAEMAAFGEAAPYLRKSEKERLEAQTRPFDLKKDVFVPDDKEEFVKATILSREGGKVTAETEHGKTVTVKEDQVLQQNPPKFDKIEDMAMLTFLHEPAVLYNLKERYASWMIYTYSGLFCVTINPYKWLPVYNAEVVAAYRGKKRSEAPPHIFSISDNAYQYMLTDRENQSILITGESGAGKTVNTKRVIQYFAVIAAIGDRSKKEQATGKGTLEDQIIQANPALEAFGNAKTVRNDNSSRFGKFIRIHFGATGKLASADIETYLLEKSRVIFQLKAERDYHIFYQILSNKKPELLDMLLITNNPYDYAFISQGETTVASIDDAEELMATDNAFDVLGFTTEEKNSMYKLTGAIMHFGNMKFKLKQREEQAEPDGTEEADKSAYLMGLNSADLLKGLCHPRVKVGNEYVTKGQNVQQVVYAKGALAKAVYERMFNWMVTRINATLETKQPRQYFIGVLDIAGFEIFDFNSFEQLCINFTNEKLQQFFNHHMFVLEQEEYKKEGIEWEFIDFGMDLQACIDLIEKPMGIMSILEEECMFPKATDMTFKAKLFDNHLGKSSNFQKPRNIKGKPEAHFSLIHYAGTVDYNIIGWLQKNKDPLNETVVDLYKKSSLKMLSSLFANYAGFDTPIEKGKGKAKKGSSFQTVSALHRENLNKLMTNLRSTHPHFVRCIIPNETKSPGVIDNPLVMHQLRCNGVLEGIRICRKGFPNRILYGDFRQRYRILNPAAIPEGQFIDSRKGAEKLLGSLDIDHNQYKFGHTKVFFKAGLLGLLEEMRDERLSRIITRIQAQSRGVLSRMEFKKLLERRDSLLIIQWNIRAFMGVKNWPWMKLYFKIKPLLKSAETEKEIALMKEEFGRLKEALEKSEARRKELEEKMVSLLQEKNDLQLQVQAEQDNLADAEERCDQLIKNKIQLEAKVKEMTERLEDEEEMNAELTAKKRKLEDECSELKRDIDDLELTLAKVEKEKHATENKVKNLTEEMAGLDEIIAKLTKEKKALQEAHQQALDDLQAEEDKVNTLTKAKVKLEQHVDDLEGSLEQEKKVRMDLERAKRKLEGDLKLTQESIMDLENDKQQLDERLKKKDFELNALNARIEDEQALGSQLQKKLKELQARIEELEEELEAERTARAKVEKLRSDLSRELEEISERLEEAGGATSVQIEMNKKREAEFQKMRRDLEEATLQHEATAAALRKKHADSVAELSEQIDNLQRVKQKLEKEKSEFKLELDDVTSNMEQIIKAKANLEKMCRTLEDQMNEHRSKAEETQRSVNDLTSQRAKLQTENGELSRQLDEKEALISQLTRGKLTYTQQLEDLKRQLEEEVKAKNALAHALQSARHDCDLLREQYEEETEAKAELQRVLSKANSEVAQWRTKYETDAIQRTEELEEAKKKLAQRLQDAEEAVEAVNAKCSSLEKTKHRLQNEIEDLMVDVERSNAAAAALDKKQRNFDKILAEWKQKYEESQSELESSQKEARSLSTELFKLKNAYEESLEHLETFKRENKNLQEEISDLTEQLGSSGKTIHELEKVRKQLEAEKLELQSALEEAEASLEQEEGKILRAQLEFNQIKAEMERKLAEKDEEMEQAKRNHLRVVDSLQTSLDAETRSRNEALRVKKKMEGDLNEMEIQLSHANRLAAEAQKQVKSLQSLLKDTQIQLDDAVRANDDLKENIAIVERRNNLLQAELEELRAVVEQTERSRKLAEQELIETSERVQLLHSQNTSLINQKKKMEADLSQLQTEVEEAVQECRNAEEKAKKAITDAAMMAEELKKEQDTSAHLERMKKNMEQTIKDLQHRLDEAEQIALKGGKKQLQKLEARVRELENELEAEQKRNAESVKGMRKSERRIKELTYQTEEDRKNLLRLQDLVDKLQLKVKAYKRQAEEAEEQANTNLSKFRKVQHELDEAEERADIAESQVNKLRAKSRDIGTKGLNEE
Sequence of bovine cardiac myofibrils (full-length cardiac myosin ATPase in the native sarcomere) (P85100 whole entry partner): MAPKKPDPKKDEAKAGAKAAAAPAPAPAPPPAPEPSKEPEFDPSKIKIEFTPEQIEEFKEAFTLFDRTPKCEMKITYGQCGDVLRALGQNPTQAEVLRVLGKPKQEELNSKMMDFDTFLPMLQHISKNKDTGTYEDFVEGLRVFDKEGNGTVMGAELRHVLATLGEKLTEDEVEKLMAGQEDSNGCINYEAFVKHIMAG
Sequence of bovine cardiac myofibrils (full-length cardiac myosin ATPase in the native sarcomere) (Q3SZE5 whole entry partner): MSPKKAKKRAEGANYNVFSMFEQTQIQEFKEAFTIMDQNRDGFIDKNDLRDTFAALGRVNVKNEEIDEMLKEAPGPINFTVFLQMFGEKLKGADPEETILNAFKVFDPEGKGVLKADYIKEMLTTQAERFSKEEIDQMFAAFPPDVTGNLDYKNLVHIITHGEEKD

Take `CCc1nc(-c2ccc3c(c2)CC[C@H]3NC(=O)c2ccnn2CCO)no1` [Compound 607, (R)-N-(5-(5-ethyl-1,2,4-oxadiazol-3-yl)-2,3-dihydro-1H-inden-1-yl)-1-(2-hydroxyethyl)-1H-pyrazole-5-carboxamide]: the “CDMF75 IC15” value is 2.9 µM and the half-maximal inhibitory concentration (IC50) was determined as 15.4 µM.

Consider `O=C(N[C@@H]1CCc2cc(-c3noc(C(F)F)n3)ccc21)c1cc(CO)ccc1F` [Compound 663, (R)-N-(5-(5-(difluoromethyl)-1,2,4-oxadiazol-3-yl)-2,3-dihydro-1H-inden-1-yl)-2-fluoro-5-(hydroxymethyl)benzamide], for which the “CDMF75 IC15” value came to 2.3 µM and the IC50 came to 19.6 µM.

As for `Cc1cncc(-c2ccc3c(c2)CC[C@H]3NC(=O)c2ccnn2C)n1` [Compound 382, (R)-1-methyl-N-(5-(6-methylpyrazin-2-yl)-2,3-dihydro-1H-inden-1-yl)-1H-pyrazole-5-carboxamide], the “CDMF75 IC15” value was determined as 2.7 µM and the IC50 is 10.1 µM.

Consider `CCc1nc(-c2ccc3c(c2)CCC[C@H]3NC(=O)c2ccnn2C)no1` [Compound 526, (R)-N-(6-(5-ethyl-1,2,4-oxadiazol-3-yl)-1,2,3,4-tetrahydronaphthalen-1-yl)-1-methyl-1H-pyrazole-5-carboxamide], for which the “CDMF75 IC15” value came to 0.4 µM and the IC50 is 1.3 µM.

Take `Cc1ccnc(-c2ccc3c(c2)CC[C@H]3NC(=O)c2ccnn2C)c1` [Compound 380, (R)-1-methyl-N-(5-(4-methylpyridin-2-yl)-2,3-dihydro-1H-inden-1-yl)-1H-pyrazole-5-carboxamide]: the “CDMF75 IC15” value amounted to 2.2 µM and the 50% inhibitory concentration (IC50) was found to be 10.3 µM.

For the compound `[2H]C([2H])([2H])c1nc(-c2ccc3c(c2)CC[C@H]3NC(=O)c2cnc(C)o2)no1` [Compound 249, (R)-2-methyl-N-(5-(5-(methyl-d3)-1,2,4-oxadiazol-3-yl)-2,3-dihydro-1H-inden-1-yl)oxazole-5-carboxamide], the “CDMF75 IC15” value was determined as 1.4 µM and the IC50 came to 5.2 µM.

As for `CC(=O)N[C@@H]1COc2cc(-c3noc(C(F)F)n3)ccc21` [Compound 444, (S)-N-(6-(5-(difluoromethyl)-1,2,4-oxadiazol-3-yl)-2,3-dihydrobenzofuran-3-yl)acetamide], the “CDMF75 IC15” value was determined as 1.6 µM and the IC50 was 7.9 µM.

As for `CC(=O)N[C@@H]1COc2cc(-c3noc(C)n3)ccc21` [Compound 450, (S)-N-(6-(5-methyl-1,2,4-oxadiazol-3-yl)-2,3-dihydrobenzofuran-3-yl)acetamide], the “CDMF75 IC15” value was 3.2 µM and the IC50 is 12.4 µM.

Regarding `Cc1nc(-c2ccc3c(c2)CC[C@H]3NC(=O)c2oncc2C)no1` [Compound 113, (R)-4-methyl-N-(5-(5-methyl-1,2,4-oxadiazol-3-yl)-2,3-dihydro-1H-inden-1-yl)isoxazole-5-carboxamide], the “CDMF75 IC15” value came to 0.3 µM and the IC50 stood at 1.3 µM.

As for `CCc1nc(-c2ccc3c(c2)CC[C@H]3NC(=O)c2cnn(C(C)CO)c2)no1` (stereo partly drawn) [Compound 533, N-((R)-5-(5-ethyl-1,2,4-oxadiazol-3-yl)-2,3-dihydro-1H-inden-1-yl)-1-(1-hydroxypropan-2-yl)-1H-pyrazole-4-carboxamide], the “CDMF75 IC15” value is 1.5 µM and the IC50 turned out to be 8.7 µM.

For the compound `COCc1nc(-c2ccc3c(c2)OC[C@H]3NC(=O)c2cccc([C@@H](C)O)c2)no1` [Compound 737, 3-((R)-1-hydroxyethyl)-N-((S)-6-(5-(methoxymethyl)-1,2,4-oxadiazol-3-yl)-2,3-dihydrobenzofuran-3-yl)benzamide], the “CDMF75 IC15” value came to 2.4 µM and the IC50 was 14.9 µM.

In the case of `CCc1nc(-c2ccc3c(c2)OC[C@H]3NC(=O)N2CC(O)C2)no1` [Compound 741, (S)-N-(6-(5-ethyl-1,2,4-oxadiazol-3-yl)-2,3-dihydrobenzofuran-3-yl)-3-hydroxyazetidine-1-carboxamide], the “CDMF75 IC15” value turned out to be 1.9 µM and the IC50 stood at 10.5 µM.

Turning to `CCc1nc(-c2ccc3c(c2)CC[C@H]3NC(=O)c2ccncc2C)no1` [Compound 629, (R)-N-(5-(5-ethyl-1,2,4-oxadiazol-3-yl)-2,3-dihydro-1H-inden-1-yl)-3-methylisonicotinamide], the “CDMF75 IC15” value came out at 2.1 µM and the IC50 was determined as 9.4 µM.

Turning to `CCc1nc(-c2ccc3c(c2)OCC[C@H]3NC(=O)c2cnn(C)c2)no1` [Compound 535, (R)-N-(7-(5-ethyl-1,2,4-oxadiazol-3-yl)chroman-4-yl)-1-methyl-1H-pyrazole-4-carboxamide], the “CDMF75 IC15” value was found to be 1.0 µM and the IC50 is 5.8 µM.

In the case of `Cc1nc(-c2ccc3c(c2)OC[C@H]3NC(=O)c2cccc([C@H](C)O)c2)no1` [Compound 734, 3-((S)-1-hydroxyethyl)-N-((S)-6-(5-methyl-1,2,4-oxadiazol-3-yl)-2,3-dihydrobenzofuran-3-yl)benzamide], the “CDMF75 IC15” value was found to be 0.8 µM and the IC50 was found to be 4.1 µM.

With `O=C1CC[C@@H](C(=O)N[C@@H]2CCc3cc(-c4noc(C5CC5)n4)ccc32)N1` [Compound 338, (S)-N-((R)-5-(5-cyclopropyl-1,2,4-oxadiazol-3-yl)-2,3-dihydro-1H-inden-1-yl)-5-oxopyrrolidine-2-carboxamide], the “CDMF75 IC15” value is 39.2 µM and the IC50 is above 39.2 µM.

Regarding `O=C(N[C@@H]1CCc2cc(-c3noc(C4CCC4)n3)ccc21)C(F)F` [Compound 440, (R)-N-(5-(5-cyclobutyl-1,2,4-oxadiazol-3-yl)-2,3-dihydro-1H-inden-1-yl)-2,2-difluoroacetamide], the “CDMF75 IC15” value was found to be 2.7 µM and the IC50 was found to be 10.7 µM.

For the compound `CCc1nc(-c2ccc3c(c2)CC[C@H]3NC(=O)c2cnc(C)s2)no1` [Compound 595, (R)-N-(5-(5-ethyl-1,2,4-oxadiazol-3-yl)-2,3-dihydro-1H-inden-1-yl)-2-methylthiazole-5-carboxamide], the “CDMF75 IC15” value turned out to be 0.3 µM and the IC50 is 1 µM.

Regarding `CCc1nc(-c2ccc3c(c2)CC[C@H]3NC(=O)c2ccn(CCO)c(=O)c2)no1` [Compound 559, (R)-N-(5-(5-ethyl-1,2,4-oxadiazol-3-yl)-2,3-dihydro-1H-inden-1-yl)-1-(2-hydroxyethyl)-2-oxo-1,2-dihydropyridine-4-carboxamide], the “CDMF75 IC15” value came out at 1.4 µM and the half-maximal inhibitory concentration (IC50) stood at 5.7 µM.

Regarding `CCc1nc(-c2ccc3c(c2)CC[C@H]3NC(=O)c2cn[nH]c2)no1` [Compound 469, (R)-N-(5-(5-ethyl-1,2,4-oxadiazol-3-yl)-2,3-dihydro-1H-inden-1-yl)-1H-pyrazole-4-carboxamide], the “CDMF75 IC15” value turned out to be 0.3 µM and the IC50 was found to be 1.1 µM.

Consider `COCCOC(=O)N[C@@H]1CCc2cc(-c3noc(C4CC4)n3)ccc21` [Compound 327, 2-methoxyethyl (R)-(5-(5-cyclopropyl-1,2,4-oxadiazol-3-yl)-2,3-dihydro-1H-inden-1-yl)carbamate], for which the “CDMF75 IC15” value came to 1.8 µM and the IC50 was determined as 8.2 µM.

Consider `O=C(N[C@@H]1CCc2cc(-c3noc(C4CCC4)n3)ccc21)c1nn[nH]n1` [Compound 505, (R)-N-(5-(5-cyclobutyl-1,2,4-oxadiazol-3-yl)-2,3-dihydro-1H-inden-1-yl)-2H-tetrazole-5-carboxamide], for which the “CDMF75 IC15” value was 6.5 µM and the 50% inhibitory concentration (IC50) stood at 29.2 µM.
